Patent US20250136594A1 (Tango Therapeutics, Inc., priority 2022, published 2025)
Like-named read-outs stand apart in the source and are kept apart here.

How the values were obtained:
[1] = tested on: HAP1 MTAP-deleted cell line; test: Viability assay, HAP1 MTAP-deleted cell line; type: cell-based; conditions: Homo sapiens
[2] = tested on: SDMA in HAP1 MTAP-intact cell line (PRMT5 inhibition); test: SDMA in-cell western assay, HAP1 MTAP-intact cell line; conditions: Homo sapiens, HAP1, read-out: Hap1 MTAP intact IC50
[3] = tested on: SDMA in HAP1 MTAP-deleted (MTAP-null) cell line (PRMT5 inhibition); test: SDMA in-cell western assay, HAP1 MTAP-deleted cell line; conditions: for IC50 / IC90: Homo sapiens; for IC50: HAP1, read-out: Hap1 MTAP deleted IC50; for IC90: HAP1, read-out: Hap1 MTAP deleted IC90; for Hap1 MTAP intact/deleted ratio: ratio of SDMA IC50 in HAP1 MTAP-intact to HAP1 MTAP-deleted cell line
[4] = viability assay, HAP1 MTAP-deleted cell line, read-out: Hap1 MTAP deleted viability IC50
[5] = HAP1, read-out: Hap1 MTAP deleted viability IC50

Row | SMILES | IC50 [1, 4] [nM] | IC50 [2] [nM] | IC50 [3] [nM] | IC90 [3] [nM] | Hap1 MTAP intact/deleted ratio [3] | IC50 [1, 5] [nM]
1 | COC[C@@H](C1CC1)N(Cc1ccc(C(F)(F)F)cn1)C(=O)C(=O)Nc1cnc(OC)c(C(N)=O)c1 [Compound 37, (R)-N1-(5-carbamoyl-6-methoxypyridin-3-yl)-N^2-(1-cyclopropyl-2-methoxyethyl)-N^2-((5-(trifluoromethyl)pyridin-2-yl)methyl)oxalamide] | < 100 | > 50 | 5 to 50 | < 75 | B (IC50 ratio greater than or equal to 15 fold but lower than 30 fold) | 
2 | Nc1ncc(NC(=O)C(=O)N(Cc2ccccc2)C2CCOc3ccccc32)c2[nH]ncc12 (stereo not drawn) [Compound 97, N-(4-Amino-1H-pyrazolo[4,3-c]pyridin-7-yl)-N′-benzyl-N′-chroman-4-yl-oxamide] | < 100 | 5 to 50 | < 5 | < 75 | B (IC50 ratio greater than or equal to 15 fold but lower than 30 fold) | 
3 | COC[C@@H](C1CC1)N(Cc1ccc(C(F)(F)F)cn1)C(=O)C(=O)Nc1cnc(N)c(C)c1 [Compound 5, (R)—N^1-(6-amino-5-methylpyridin-3-yl)-N^2-(1-cyclopropyl-2-methoxyethyl)-N^2-((5-(trifluoromethyl)pyridin-2-yl)methyl)oxalamide] | < 100 | 5 to 50 | 5 to 50 | < 75 | C (IC50 ratio of less than 15 fold) | 
4 | CC(C)C(C)N(Cc1ccc(C(F)(F)F)cn1)C(=O)C(=O)Nc1cncc(C(N)=O)c1 (stereo not drawn) [Compound 20, N-(5-carbamoyl-3-pyridyl)-N′-(1,2-dimethylpropyl)-N′-[[5-(trifluoromethyl)-2-pyridyl]methyl]oxamide] | 100 to 1000 | > 50 | 5 to 50 | > 125 | B (IC50 ratio greater than or equal to 15 fold but lower than 30 fold) | 
5 | Cc1ccc(CN(Cc2ccccn2)C(=O)C(=O)Nc2cnc(N)c3cn[nH]c23)cc1 [Compound 190, N-(4-amino-1H-pyrazolo[4,3-c]pyridin-7-yl)-N′-(p-tolylmethyl)-N′-(2-pyridylmethyl)oxamide] | < 100 | 5 to 50 | < 5 | < 75 | A (IC50 ratio greater than or equal to 30 fold) | 
6 | C[C@@H](c1ccc(C(F)(F)F)cc1F)N(C)C(=O)C(=O)Nc1cnc(N)c2c1cnn2C [Compound 82, N-(7-Amino-1-methyl-pyrazolo[3,4-c]pyridin-4-yl)-N′-methyl-N′—[(1S)-1-[2-fluoro-4-(trifluoromethyl)phenyl]ethyl]oxamide] | 100 to 1000 | > 50 | 5 to 50 | > 125 | B (IC50 ratio greater than or equal to 15 fold but lower than 30 fold) | 
7 | CCN(Cc1ccc(C(F)(F)F)cc1C)C(=O)C(=O)Nc1cnc(N)c2cn[nH]c12 [Compound 104, N-(4-Amino-1H-pyrazolo[4,3-c]pyridin-7-yl)-N′-ethyl-N′-[[2-methyl-4-(trifluoromethyl)phenyl]methyl]oxamide] | < 100 | > 50 | < 5 | < 75 | A (IC50 ratio greater than or equal to 30 fold) | 
8 | Nc1ncc(NC(=O)C(=O)N(Cc2ccccn2)Cc2cccc(Cl)c2Cl)c2[nH]ncc12 [Compound 91, N-(4-amino-2H-pyrazolo[4,3-c]pyridin-7-yl)-N′—[(2,3-dichlorophenyl)methyl]-N′-(2-pyridylmethyl)oxamide] | < 100 | < 5 | < 5 | < 75 | C (IC50 ratio of less than 15 fold) | 
9 | Cc1ccccc1CN(CC1CC1)C(=O)C(=O)Nc1cnc(N)c2cn[nH]c12 [Compound 155, N-(4-amino-1H-pyrazolo[4,3-c]pyridin-7-yl)-N′-(cyclopropylmethyl)-N′-(o-tolylmethyl)oxamide] | < 100 | > 50 | < 5 | < 75 | A (IC50 ratio greater than or equal to 30 fold) | 
10 | Cc1ccccc1CN(C(=O)C(=O)Nc1cnc(N)c2cn[nH]c12)[C@@H](C)C(C)C [Compound 117, (S)—N^1-(4-amino-1H-pyrazolo[4,3-c]pyridin-7-yl)-N^2-(2-methylbenzyl)-N^2-(3-methylbutan-2-yl)oxalamide] | 100 to 1000 | > 50 | < 5 | 75 to 125 | B (IC50 ratio greater than or equal to 15 fold but lower than 30 fold) | 
11 | Nc1ncc(NC(=O)C(=O)N(Cc2ccccc2)Cc2ccccc2)c2[nH]ncc12 [Compound 21, N-(4-amino-1H-pyrazolo[4,3-c]pyridin-7-yl)-N′,N′-dibenzyl-oxamide] |  | > 50 | < 5 | < 75 |  | < 100
12 | Nc1ncc(NC(=O)C(=O)N(Cc2ccccc2)Cc2ncccc2C(F)(F)F)c2[nH]ncc12 [Compound 154, N-(4-amino-1H-pyrazolo[4,3-c]pyridin-7-yl)-N′-benzyl-N′-[[3-(trifluoromethyl)-2-pyridyl]methyl]oxamide] | < 100 | 5 to 50 | < 5 | < 75 | A (IC50 ratio greater than or equal to 30 fold) | 
13 | Cc1ccccc1CN(CC(C)C)C(=O)C(=O)Nc1cnc(N)c2cn[nH]c12 [Compound 185, N-(4-amino-1H-pyrazolo[4,3-c]pyridin-7-yl)-N′-isobutyl-N′-(o-tolylmethyl)oxamide] | < 100 | > 50 | < 5 | < 75 | A (IC50 ratio greater than or equal to 30 fold) | 
14 | COC[C@@H](C1CC1)N(Cc1ccc(C(F)(F)F)cn1)C(=O)C(=O)Nc1cnc(N)c(C2CC2)c1 [Compound 45, (R)—N^1-(6-amino-5-cyclopropylpyridin-3-yl)-N^2-(1-cyclopropyl-2-methoxyethyl)-N^2-((5-(trifluoromethyl)pyridin-2-yl)methyl)oxalamide] | 100 to 1000 | > 50 | 5 to 50 | > 125 | A (IC50 ratio greater than or equal to 30 fold) | 
15 | Cc1ccc(CN(Cc2ccccc2)C(=O)C(=O)Nc2cnc(N)c3cn[nH]c23)nc1 [Compound 179, N-(4-amino-1H-pyrazolo[4,3-c]pyridin-7-yl)-N′-benzyl-N′-[(5-methyl-2-pyridyl)methyl]oxamide] | < 100 | 5 to 50 | < 5 | < 75 | A (IC50 ratio greater than or equal to 30 fold) | 
16 | CCc1cc(NC(=O)C(=O)N(Cc2ccc(C(F)(F)F)cn2)[C@@H](COC)C2CC2)cnc1N [Compound 7, (R)—N^1-(6-amino-5-ethylpyridin-3-yl)-N^2-(1-cyclopropyl-2-methoxyethyl)-N^2-((5-(trifluoromethyl)pyridin-2-yl)methyl)oxalamide] | 100 to 1000 | > 50 | 5 to 50 | > 125 | B (IC50 ratio greater than or equal to 15 fold but lower than 30 fold) | 
17 | Cc1cc(NC(=O)C(=O)N(Cc2ccc(C(F)(F)F)cn2)[C@@H](C)c2ncccn2)cnc1N [Compound 49, N-(6-amino-5-methyl-3-pyridyl)-N′—[(1S)-1-pyrimidin-2-ylethyl]-N′-[[5-(trifluoromethyl)-2-pyridyl]methyl]oxamide] | 100 to 1000 | 5 to 50 | 5 to 50 | > 125 | C (IC50 ratio of less than 15 fold) | 
18 | Cc1ccccc1CN(Cc1ccc(Cl)cc1)C(=O)C(=O)Nc1cnc(N)c2cn[nH]c12 [Compound 109, N-(4-amino-1H-pyrazolo[4,3-c]pyridin-7-yl)-N′-[(4-chlorophenyl)methyl]-N′-(o-tolylmethyl)oxamide] | < 100 | 5 to 50 | < 5 | < 75 | C (IC50 ratio of less than 15 fold) | 
19 | C[C@H](c1ccc(C(F)(F)F)cc1C(F)(F)F)N(C)C(=O)C(=O)Nc1cnc(N)c2cn[nH]c12 [Compound 193, N-(4-Amino-2H-pyrazolo[4,3-c]pyridin-7-yl)-N′-methyl-N′—[(1R)-1-[2,4-bis (trifluoromethyl)phenyl]ethyl]oxamide] |  | > 50 | < 5 | < 75 |  | < 100
20 | Nc1ncc(NC(=O)C(=O)N(Cc2ccccc2)Cc2ccc(F)cn2)c2[nH]ncc12 [Compound 68, N-(4-amino-1H-pyrazolo[4,3-c]pyridin-7-yl)-N′-benzyl-N′-[(5-fluoro-2-pyridyl)methyl]oxamide] | < 100 | > 50 | < 5 | < 75 | A (IC50 ratio greater than or equal to 30 fold) | 
21 | C[C@H](c1ccc(C(F)(F)C(F)(F)F)cc1)N(C)C(=O)C(=O)Nc1cnc(N)c2c1cnn2C [Compound 81, N-(7-Amino-1-methyl-pyrazolo[3,4-c]pyridin-4-yl)-N′-methyl-N′—[(1R)-1-[4-(1,1,2,2,2-pentafluoroethyl)phenyl]ethyl]oxamide] | < 100 | 5 to 50 | < 5 | < 75 | A (IC50 ratio greater than or equal to 30 fold) | 
22 | CCc1cc(NC(=O)C(=O)N(Cc2ccc(C(F)(F)F)cn2)C(C)C(C)C)cnc1N (stereo not drawn) [Compound 42, N-(6-amino-5-ethyl-3-pyridyl)-N′-(1,2-dimethylpropyl)-N′-[[5-(trifluoromethyl)-2-pyridyl]methyl]oxamide] | 100 to 1000 | > 50 | 5 to 50 | > 125 | B (IC50 ratio greater than or equal to 15 fold but lower than 30 fold) | 
